Columns and labels:
Test in all cases: selective drug sensitivity score (sDSS, relative to normal bone marrow) (sDSS (score)); higher = more potent and effective on the cell line relative to normal bone marrow cells
Details in all cases: 72 h
LC4-1 = test system: LC4-1
697 = test system: 697
RPMI-8402 = test system: RPMI-8402
380 = test system: 380
MOLT-4 = test system: MOLT-4
ALL-SIL = test system: ALL-SIL
RCH-ACV = test system: RCH-ACV
TANOUE = test system: TANOUE
CCRF-CEM = test system: CCRF-CEM
COG-LL-355h = test system: COG-LL-355h
MOLT-16 = test system: MOLT-16
SUP-B15 = test system: SUP-B15
COG-LL-317 = test system: COG-LL-317
SEM cells = test system: SEM cells
MHH-CALL-2 = test system: MHH-CALL-2
KASUMI-9 = test system: KASUMI-9
KARPAS-45 = test system: KARPAS-45
NALM-16 = test system: NALM-16
MHH-CALL-3 = test system: MHH-CALL-3
MOLT-14 = test system: MOLT-14
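Note: ALL cell lines in 384-well plates, five doses spanning 10,000-fold, each plate scaled between vehicle and 100 µmol/L benzalkonium chloride controls, sDSS an adapted area-under-curve metric.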

| SMILES | selective drug sensitivity score (LC4-1) | selective drug sensitivity score 697 | selective drug sensitivity score (RPMI-8402) | selective drug sensitivity score 380 | selective drug sensitivity score (MOLT-4) | selective drug sensitivity score (ALL-SIL) | selective drug sensitivity score (RCH-ACV) | selective drug sensitivity score (TANOUE) | selective drug sensitivity score (CCRF-CEM) | selective drug sensitivity score (COG-LL-355h) | selective drug sensitivity score (MOLT-16) | selective drug sensitivity score (SUP-B15) | selective drug sensitivity score (COG-LL-317) | selective drug sensitivity score (SEM cells) | selective drug sensitivity score (MHH-CALL-2) | selective drug sensitivity score (KASUMI-9) | selective drug sensitivity score (KARPAS-45) | selective drug sensitivity score (NALM-16) | selective drug sensitivity score (MHH-CALL-3) | selective drug sensitivity score (MOLT-14) |
| --- | --- | --- | --- | --- | --- | --- | --- | --- | --- | --- | --- | --- | --- | --- | --- | --- | --- | --- | --- | --- |
| COc1cc(N2CCN(C)CC2)ccc1Nc1nccc(-c2cn(C)c3cnccc23)n1 [AZ191] (top concentration 10000 nM) | -2.72 | 1.08 | 0.18 | -2.42 | -3.32 | -1.52 | 2.38 | -4.62 | -1.42 | -0.02 | -1.32 | -2.72 | 0.58 | 5.58 | 3.88 | 1.58 | 0.98 | -3.72 | -2.72 | -1.32 |
| c1cn2cc(-c3ccc4cn[nH]c4c3)nc(Nc3ccc(N4CCOCC4)cc3)c2n1 [Entospletinib] (top concentration 5000 nM) | -0.64 | 3.16 | -0.64 | -0.64 | -0.64 | -0.64 | 12.3 | -0.64 | -0.64 | 1.06 | -0.64 | 1.36 | -0.64 | 4.56 | -0.64 | 2.96 | -0.64 | -0.64 | -0.64 | -0.64 |
| CC[C@@H]1CN(C(=O)NCC(F)(F)F)C[C@@H]1c1cnc2cnc3[nH]ccc3n12 [Upadacitinib] (top concentration 10000 nM) | -5.16 | -6.06 | -7.16 | -0.16 | -7.16 | -7.16 | -7.16 | -6.86 | -4.66 | -7.16 | -7.16 | -7.16 | -7.16 | -7.16 | -7.16 | -2.76 | -7.16 | -7.16 | -0.46 | -7.16 |
| Nc1cccc2c1C(=O)N(C1CCC(=O)NC1=O)C2=O (stereo not given) [Pomalidomide] (top concentration 10000 nM) | 4.54 | 1.74 | -0.26 | -0.26 | -0.26 | -0.26 | 9.54 | -0.26 | -0.26 | 5.24 | -0.26 | -0.26 | -0.26 | 3.64 | -0.16 | 6.84 | -0.26 | -0.26 | -0.26 | -0.26 |
| CC[C@@H]1[C@H](F)C(=O)N[C@@H]1COc1nccc2cc(C(N)=O)c(OC)cc12 (top concentration 10000 nM) | 0.08 | 1.88 | 1.38 | -1.32 | 2.48 | -1.32 | 2.58 | -0.22 | 1.58 | 1.28 | 0.98 | 0.98 | 1.28 | 1.48 | -0.22 | 0.08 | 2.58 | -1.32 | 1.58 | 1.38 |
| C=CC(=O)Nc1cc(Nc2nccc(-c3cn(C)c4ccccc34)n2)c(OC)cc1N(C)CCN(C)C [Osimertinib] (top concentration 2500 nM) | -0.42 | -1.42 | -0.42 | -3.82 | -3.12 | -2.52 | -1.02 | -5.22 | -0.52 | 2.98 | -0.82 | -2.02 | 0.78 | 0.58 | 3.18 | 3.88 | -1.92 | -4.42 | -4.62 | 0.08 |
| N.N.[Cl][Pt][Cl] [Cisplatin] (top concentration 100000 nM) | 17.7 | 19.7 | 4.04 | 7.54 | 16.2 | 8.94 | 20.5 | -3.16 | 15.3 | 5.84 | 17.7 | 17.4 | 23.2 | 12.2 | 14.6 | 12.3 | 5.84 | -0.86 | 4.04 | 18.6 |
| CCNc1nc(Nc2cc(F)c(C(=O)N3CCOCC3)cc2OC)ncc1C(F)(F)F [GNE-7915] (top concentration 1000 nM) | -0.06 | -0.06 | -0.06 | -0.06 | -0.06 | -0.06 | -0.06 | -0.06 | -0.06 | -0.06 | -0.06 | -0.06 | 0.34 | -0.06 | 1.74 | -0.06 | -0.06 | -0.06 | -0.06 | -0.06 |
| N#CC1(c2ccc(NC(=O)c3cccnc3NCc3ccncc3)cc2)CCCC1 [Apatinib] (top concentration 10000 nM) | 1.2 | 0 | 0.1 | 0 | 0 | 0 | 1.1 | 0 | 0 | 0 | 0 | 0.1 | 0 | 1 | 1.2 | 0 | 0 | 0 | 0 | 0 |
| Clc1ccc(C(c2ccccc2Cl)C(Cl)Cl)cc1 (stereo not given) [Mitotane] (top concentration 10000 nM) | -0.08 | -0.08 | -0.08 | -0.08 | -0.08 | -0.08 | -0.08 | -0.08 | -0.08 | 0.02 | -0.08 | -0.08 | -0.08 | -0.08 | 1.32 | -0.08 | 0.02 | -0.08 | -0.08 | 0.32 |
| CCN(c1cc(-c2ccc(CN3CCOCC3)cc2)cc(C(=O)NCc2c(C)cc(C)[nH]c2=O)c1C)C1CCOCC1 [Tazemetostat] (top concentration 10000 nM) | -0.08 | 0.32 | 0.22 | -0.08 | -0.08 | 0.12 | -0.08 | -0.08 | 1.02 | -0.08 | -0.08 | -0.08 | -0.08 | 2.42 | 6.72 | 0.92 | 1.32 | -0.08 | -0.08 | 0.32 |
| C=CC(=O)Nc1cccc(Nc2nc(Nc3ccc(N4CCN(C(C)=O)CC4)cc3OC)ncc2C(F)(F)F)c1 [Rociletinib] (top concentration 10000 nM) | 3.94 | 3.54 | 2.24 | -0.16 | 2.04 | 3.64 | 2.54 | -3.16 | 2.44 | 5.84 | 2.04 | 1.44 | 1.44 | 6.34 | 1.94 | 5.14 | 3.14 | 4.04 | -1.06 | 2.54 |
| Cc1nc2cccc(N)c2c(=O)n1C1CCC(=O)NC1=O (stereo not given) [Avadomide (CC122)] (top concentration 10000 nM) | 3.5 | 2.7 | 0 | 0 | 0 | 0 | 10.5 | 0 | 0.9 | 2.6 | 0 | 0 | 0 | 0.9 | 0 | 10.7 | 0 | 0 | 0 | 0 |
| CCCCOc1nc(N)c2c(n1)N(Cc1cccc(CN3CCCC3)c1)CC(=O)N2 [Vesatolimod] (top concentration 10000 nM) | -3.52 | -3.42 | -3.52 | -3.52 | -3.52 | -3.52 | -3.52 | -3.32 | -3.52 | 0.28 | -3.52 | -3.52 | -2.92 | -3.52 | -3.52 | -2.92 | -3.52 | -3.52 | -3.52 | -3.52 |
| CNC(=O)c1ccc(N2C(=S)N(c3cnc(C#N)c(C(F)(F)F)c3)C(=O)C23CCC3)cc1F [Apalutamide] (top concentration 10000 nM) | 0 | 0 | 0 | 0 | 0 | 0 | 0 | 0.1 | 0 | 0 | 0 | 0 | 0 | 0 | 0 | 0 | 0 | 0 | 0 | 0 |
| COc1cc(Nc2c(C#N)cnc3cc(OCCCN4CCN(C)CC4)c(OC)cc23)c(Cl)cc1Cl [Bosutinib] (top concentration 10000 nM) | 0.96 | 5.86 | 1.56 | -0.64 | -0.64 | 26.7 | 5.76 | -7.74 | -0.74 | 1.86 | 0.16 | 16 | -2.64 | 1.96 | 7.66 | 4.06 | 2.46 | -3.04 | 8.06 | 1.86 |
| CCCCC(=O)OCC(=O)[C@]1(O)Cc2c(O)c3c(c(O)c2[C@@H](O[C@H]2C[C@H](NC(=O)C(F)(F)F)[C@H](O)[C@H](C)O2)C1)C(=O)c1c(OC)cccc1C3=O [Valrubicin] (top concentration 5000 nM) | 2.98 | 8.58 | 6.88 | 13 | 10.8 | -0.72 | 11.8 | -12.7 | 10.9 | 2.98 | 18.1 | 12.2 | 17 | 6.58 | 7.48 | 5.68 | -2.62 | -3.22 | 16 | 12.6 |
| C[C@@H]1CN(C(=O)c2ccc(NC(=O)c3cc(O[C@H](C)c4c(Cl)ccc(F)c4Cl)c(N)nn3)cc2)C[C@H](C)N1 [Ensartinib] (top concentration 1000 nM) | -1.44 | 0.26 | 0.06 | 0.06 | -0.54 | 1.06 | -1.44 | -2.84 | -0.34 | 1.86 | -0.74 | 3.86 | -2.34 | -0.34 | -2.84 | 0.76 | 2.36 | -2.14 | -2.84 | -1.74 |

Reference: the supplement of paper PMC8967900
